We go through five compounds from patent publication US6271233A, “Method for treating ocular neovascular diseases” (priority 1999, dated 2001).

For one data set, the system named is PDGF receptors. Kind of data set: Cellular autophosphorylation assay, transfected Chinese hamster ovary cells: PDGF receptors. It is filed as cell-based. The protocol: (§1) In vivo activity requires drugs to enter cells and therefore agents are tested in cellular autophosphorylation assays, using Chinese hamster ovary cells transfected with one of several RTK genes.

In data set [1] the test system is other RTKs including VEGF receptors. Kind of data set: Kinase assay, other RTKs including VEGF receptors. It is filed as biochemical. The note with it: in words.
For another data set, the system named is VEGF receptors. As to the kind of experiment: Cellular autophosphorylation assay, transfected Chinese hamster ovary cells: VEGF receptors. It is filed as cell-based. How it is done: as §1
In the next data set the target is T1, c-Kit (Homo sapiens, UniProt P10721).
T1 construct: expressed in transfected cells; host or cells: Chinese hamster ovary cells
T1 sequence (P10721 26-976): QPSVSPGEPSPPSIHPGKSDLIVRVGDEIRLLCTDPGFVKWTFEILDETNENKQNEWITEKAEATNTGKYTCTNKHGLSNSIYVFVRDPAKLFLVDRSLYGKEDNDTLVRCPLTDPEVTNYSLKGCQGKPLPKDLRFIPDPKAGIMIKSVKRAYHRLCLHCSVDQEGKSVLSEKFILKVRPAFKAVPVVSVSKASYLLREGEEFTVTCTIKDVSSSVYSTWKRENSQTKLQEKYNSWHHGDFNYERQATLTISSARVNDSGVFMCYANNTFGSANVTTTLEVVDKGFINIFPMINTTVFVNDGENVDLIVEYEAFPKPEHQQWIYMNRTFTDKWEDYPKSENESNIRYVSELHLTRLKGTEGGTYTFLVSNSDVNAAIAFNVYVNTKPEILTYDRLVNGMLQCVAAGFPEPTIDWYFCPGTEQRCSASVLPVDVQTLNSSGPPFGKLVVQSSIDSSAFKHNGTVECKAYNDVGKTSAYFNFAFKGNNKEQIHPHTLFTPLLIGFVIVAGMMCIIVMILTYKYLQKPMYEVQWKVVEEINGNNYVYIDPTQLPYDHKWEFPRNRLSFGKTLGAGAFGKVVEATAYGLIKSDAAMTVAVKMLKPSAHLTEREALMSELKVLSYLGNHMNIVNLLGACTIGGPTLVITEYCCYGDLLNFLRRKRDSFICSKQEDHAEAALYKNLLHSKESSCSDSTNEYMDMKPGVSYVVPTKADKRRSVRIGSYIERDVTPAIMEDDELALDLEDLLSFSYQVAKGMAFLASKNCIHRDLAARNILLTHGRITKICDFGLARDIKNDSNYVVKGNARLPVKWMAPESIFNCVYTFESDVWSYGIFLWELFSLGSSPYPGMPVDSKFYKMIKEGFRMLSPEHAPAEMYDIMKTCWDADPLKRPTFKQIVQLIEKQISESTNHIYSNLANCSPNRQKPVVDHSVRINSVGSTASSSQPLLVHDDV
Type of data set: cell-based. The conditions noted are these: transfected Chinese hamster ovary cells. The protocol:
as §1

In another data set the test system is insulin receptor. As to the kind of experiment: Cellular autophosphorylation assay, transfected Chinese hamster ovary cells: insulin receptor. It is filed as cell-based.
Another data set addresses T2, Flt-1 (Homo sapiens, UniProt P17948).
T2 construct: kinase domains of human VEGF receptors 1 and 2
T2 sequence (P17948 827-1158 limits assumed): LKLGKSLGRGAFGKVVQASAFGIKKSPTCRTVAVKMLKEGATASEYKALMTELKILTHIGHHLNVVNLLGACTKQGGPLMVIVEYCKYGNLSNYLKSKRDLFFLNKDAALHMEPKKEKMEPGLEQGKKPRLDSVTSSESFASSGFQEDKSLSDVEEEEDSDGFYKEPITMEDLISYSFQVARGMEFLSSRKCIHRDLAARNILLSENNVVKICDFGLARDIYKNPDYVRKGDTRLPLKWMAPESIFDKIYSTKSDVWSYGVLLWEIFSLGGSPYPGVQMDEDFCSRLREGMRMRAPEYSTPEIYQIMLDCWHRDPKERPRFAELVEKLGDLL
Kind of data set: Tyrosine kinase assay, phosphorylation of poly(GluTyr) by GST-fusion kinase domain: Flt-1. The conditions noted are these: in words. Type of data set: biochemical.

In data set [2] the test system is all other tyrosine kinase and serine/threonine kinases tested. As to the kind of experiment: Kinase assay, all other tyrosine kinase and serine/threonine kinases tested. It is filed as biochemical. The note with it: in words.
The subject of the next data set is c-erbB2. Kind of data set: Cellular autophosphorylation assay, transfected Chinese hamster ovary cells: c-erbB2. It is filed as cell-based. How it is done:
as §1

In data set [3] the test system is choroidal neovascularization. As to the kind of experiment: Laser-induced choroidal neovascularization in mice. The note with it: 50 mg/kg/day by gavage.
Method: Choroidal neovascularization is generated by modification of a previously described technique. […] Three burns of krypton laser photocoagulation (100pm spot size, 0.1 seconds duration, 150 mW) are delivered to each retina using the slit lamp delivery system of a Coherent Model 920 Photocoagulator and a hand held cover slide as a contact lens. Burns are performed in the 9, 12, and 3 o'clock positions of the posterior pole of the retina. Production of a bubble at the time of laser, which indicates rupture of Bruch's membrane, is an important factor in obtaining CNV ^16, so only mice in which a bubble is produced for all three burns are included in the study. Ten mice are randomly assigned to treatment with vehicle alone and 10 mice received vehicle containing 120 μmoles/kg/day of one of the test drugs given orally by gavage. After 14 days, the mice are killed with an overdose of pentobarbital sodium, and their eyes are rapidly removed and frozen in optimal cutting temperature embedding compound (OCT).
After a 10 minute wash in 0.05 M Tris buffer, pH 7.6, slides are developed in Histomark Red (Kirkegaard and Perry) to give a red reaction product, and mounted with Cytoseal (Stephens Scientific, Riverdale, N.J.). Some slides are counterstained with Contrast Blue (Kirkegaard and Perry).
For each lesion, area measurements are made for all sections on which some of the lesion appeared and added together to give the integrated area measurement. Values are averaged to give one experimental value per mouse. A 2-sample t-test for unequal variances is performed to compare the log mean integrated area between treatment and control mice.
The test system of data set [4] is retinal vascular development. Kind of data set: Retinal vascular development in neonatal mice. Type of data set: in vivo, mouse (C57/BL6J).
Method: Litters of newborn C57/BL6J mice are divided into treatment and control groups which received daily subcutaneous injections of 10 mg/kg of drug or vehicle, respectively. […] The eyes are removed and fixed for 1 hour in 10% phosphate-buffered formalin. The cornea and lens are removed and the entire retina is carefully dissected from the eyecup, radially cut from the edge of the retina to the equator in all 4 quadrants, and flat-mounted in Aquamount with photoreceptors facing upward.
The test system of the next data set is RTKs. The note with it: in words; cited from earlier work.
Data set [5] concerns retinal neovascularization. The conditions noted are these: pigs; cited from earlier work.
Another data set concerns retinal blood vessels. The note with it: administration of exogenous VEGF; cited from earlier work.

For `Cc1ccc(NC(=O)c2ccccc2)cc1Nc1nccc(-c2cccnc2)n1` [CGP 53 716], the “inhibition of autophosphorylation of PDGF receptors” value with PDGF receptors is “potent inhibitors”. The “inhibition of other RTKs including VEGF receptors” value in [1] is recorded as “little or no inhibitory activity”. The “inhibition of autophosphorylation of VEGF receptors” value with VEGF receptors is “poor inhibitors”.

As for `Clc1ccc(Nc2nnc(Cc3ccncc3)c3ccccc23)cc1` [CGP 79787D], the “inhibition of autophosphorylation of c-Kit” value against c-Kit is “inhibits autophosphorylation”. In addition, the “inhibition of autophosphorylation of insulin receptor” value in the data set on insulin receptor is given as “poor inhibitor”. Further, the “inhibition of phosphorylation by the kinase domain of human VEGF receptor 1” value at Flt-1 was “good inhibitor”. Moreover, the “inhibition of autophosphorylation of PDGF receptors” value with PDGF receptors is “inhibits autophosphorylation”. Also, in the data set with VEGF receptors, the “inhibition of autophosphorylation of VEGF receptors” value is given as “inhibits autophosphorylation”. Besides, in data set [2], the “inhibition of phosphorylation by all other kinases tested” value was “poor inhibitor”. Moreover, the “inhibition of autophosphorylation of c-erbB2” value with c-erbB2 was “poor inhibitor”. Also, in data set [3] (two weeks after laser), the “appearance of overlying retinal vessels” value is reported as “appeared normal” and the “choroidal neovascularization at laser-induced rupture sites of Bruch's membrane” value was “very little if any choroidal neovascularization”. Moreover, the “integrated area of lectin staining per lesion” value in data set [3] (n=5, vehicle 0.0713812±0.0066723 mm^2) turned out to be 0.01124±0.001483 mm^2. Further, in data set [4] (10 mg/kg daily s.c. from P0, P7), the “extent of retinal vessels at P7” value is “only extended about half way to the periphery”. Besides, the “extent of superficial capillary bed at P10” value in data set [4] (10 mg/kg daily s.c. from P0, P10) was “has not yet reached the edge of the retina”. In addition, the “significance of differences in retinal vascular development versus vehicle” value in [4] (10 mg/kg daily s.c., P7 and P10, FIG. 5) was “highly significant”.

With `O=c1c(-c2ccc(O)cc2)coc2cc(O)cc(O)c12` [Genistein, 4',5,7-trihydroxyisoflavone], the “inhibition of RTKs” value in the data set with RTKs is listed as “relatively weak, nonspecific inhibitor”.

`CN(C)C[C@@H]1CCn2cc(c3ccccc32)C2=C(C(=O)NC2=O)c2cn(c3ccccc23)CCO1` [LY 333531]: the “inhibition of retinal neovascularization after laser-induced branch vein occlusion” value in [5] is “partially inhibited retinal neovascularization”.

In the case of VEGF, the “hyperoxia-induced regression of retinal blood vessels” value with retinal blood vessels is listed as “prevented”.
